Source: patent publication US11098045B2, “Haloallylamine indole and azaindole derivative inhibitors of lysyl oxidases and uses thereof” (PHARMAXIS LTD., priority 2016, dated 2021)
Counter-ions that a name gives are not always drawn.

Tests used:
[1] = system: Bleomycin induced lung fibrosis; assay: Bleomycin induced lung fibrosis model; type: in vivo; conditions: mouse, intranasal bleomycin; 15 mg/kg
Method: Inhibition of Bleomycin Induced Lung Fibrosis
Bleomycin induced lung fibrosis in rodents is a widely accepted experimental model to determine the anti-fibrotic activity of therapeutic agents.
Fibrosis is induced by intranasal administered of bleomycin sulphate at a dose of 0.05 U/mouse in a total volume of 50 uL PBS (see Corbel, M., et al Inhibition of bleomycin-induced pulmonary fibrosis in mice by the matrix metalloproteinase inhibitor batimastat J Pathol. 2001 April; 193(4):538-45.) Compound 12 is given 0.1-100 mg/Kg throughout the period of the experimental procedure or 7 days after bleomycin administration and then throughout the entire study.
Formalin fixed lungs sections stained with haematoxylin and eosin are assessed for fibrosis as per the scale outlined by Ashcroft et al (Simple method of estimating severity of pulmonary fibrosis on a numerical scale J Clin Pathol 1988; 41:467-470).

[2] = system: Streptozotocin induced diabetic nephropathy; assay: Streptozotocin induced diabetic nephropathy model; type: in vivo, mouse; conditions: diabetic eNOS knockout mice, 24 weeks treatment, 0.1-100 mg/Kg
Text: Inhibition of Streptozotocin Induced Diabetic Nephropathy
Streptozotocin (STZ)-induced diabetic nephropathy is commonly used for creating rodent models of type 1 diabetes which develop renal injury, due to pancreatic cell damage with similarities to human diabetic nephropathy.
This model can be established for investigating anti-fibrotic effects of compounds in the development of kidney fibrosis.
Diabetes is induced in eNOS knockout mice on C57BL/6 background by intraperitoneal STZ injection (55 mg/kg in 0.1 M citrate buffer) in mice of 6-9 weeks of age (see Huang C et al, Blockade of KCa3.1 ameliorates renal fibrosis through a TGF-b1/Smad pathway in diabetic mice. Diabetes, 2013 62(8):2923-2934).
Blood sugar level (BSL) is determined by tail vein blood. Mice with BSL>16 mmol/L two weeks post STZ injection are considered diabetic. Treatment with Compound 12 is carried out for 24 weeks from diagnosis of diabetes at a dose of 0.1-100 mg/Kg.

[3] = system: CCl4 induced liver fibrosis; assay: CCl4 induced liver fibrosis model; type: in vivo, rat; conditions: rats, oral CCl4 for 6 weeks; 0.1-100 mg/Kg; compared with vehicle-treated group
Method: Inhibition of CCl4 Induced Liver Fibrosis
An analysis of the use of LOXL2 inhibitors to treat inflammatory/fibrotic diseases is performed through the use of a CCl4 induced liver fibrosis model. Liver injury is frequently followed by complete parenchymal regeneration due to regenerative potency of hepatocytes. Continuous liver injury due to the administration of CCl4 leads to extracellular matrix accumulation, accompanied by recurrent hepatocyte necrosis, inflammation, and regenerative processes, causing liver fibrosis and consequently liver cirrhosis (see Natsume, M., et al., Attenuated liver fibrosis and depressed serum albumin levels in carbon tetrachloride-treated IL-6-deficient mice. J. Leukoc. Biol., 1999, 66, 601-608 also See Yao, Q. Y., et al. Inhibition by curcumin of multiple sites of the transforming growth factor-beta1 signalling pathway ameliorates the progression of liver fibrosis induced by carbon tetrachloride in rats. BMC Complement Altern Med. 2012 Sep. 16; 12(1):156.)
Rats are administered orally with CCl4 at a concentration of 0.25 μL/g in olive oil, 3 times per week for 6 weeks. Compound 25 is given 0.1-100 mg/Kg throughout the period of the experimental procedure or only 3 weeks after CCl4 administration and then throughout the entire study. […]

[4] = system: Myocardial infarction induced fibrosis; assay: Myocardial infarction induced fibrosis model; type: in vivo, mouse; conditions: mice, 0.1-100 mg/Kg once a day by oral gavage; FIG. 5
Text: Inhibition of Myocardial Infarction Induced Fibrosis
Carotic ligation is a widely accepted experimental model to induce cardiac fibrosis and to determine the anti-fibrotic activity of therapeutic agents.
In mice, the chest is opened via a left thoracotomy. The left coronary artery is identified visually using a stereo microscope, and a 7-0 suture is placed around the artery 1-2 mm below the left auricle. Permanent occlusion of the left coronary artery resulted from its ligation with the suture. Myocardial ischemia was confirmed by pallor in heart color and ST-segment elevation. (see Parajuli et al. Phosphatase PTEN is critically involved in post-myocardial infarction remodeling through the Akt/interleukin-10 signaling pathway Basic Res Cardiol (2012) 107:248).
Mice were subjected to sham or carotic ligation surgery. At 24 hrs post-surgery, echocardiography was performed on the mice. Mice were treated with compound 25 0.1-100 mg/Kg once a day for 21 (7 days after carotic ligation) or 28 days or saline as vehicle controls by oral gavage. At the end of the experiment, echocardiography was repeated to assess left ventricular function and remodeling. Then mice were euthanized for heart collection. Each heart was photographed and fixed with 10% formalin. Hearts were sectioned for Masson's trichrome stain to measure fibrosis (See FIG. 5).

[5] = system: Fibroblasts from confirmed cases of IPF; assay: In vitro fibroblastic foci model of IPF, collagen cross-link formation; type: cell-based; conditions: six weeks culture with TGF-β1; FIGS. 7a and 7b
Text: Reduction of Collagen Cross-Link Formation in an In Vitro Fibroblastic Foci Model of IPF
The lung tissue of patients with idiopathic pulmonary fibrosis (IPF) is characterised by dense collections of myofibroblasts and extracellular matrix (ECM) termed ‘fibroblastic foci’. Using a novel in vitro model of fibroblastic foci (Jones et al., AJRCCM 191; 2015:A4912) the formation of lysyl oxidase (LOX) mediated collagen cross-links and the effects of the non-selective LOX inhibitor β-aminopropionitrile (BAPN) as well lysyl oxidase like-2 (LOXL2)-selective inhibitors were investigated.
Cultures of primary fibroblasts were grown out from clinical diagnostic biopsies of fibrotic lung and stored in liquid nitrogen. […]
To quantify collagen cross-links (Robins Biochem Soc Trans 2007; 35(5): 849-852; Saito et al Anal. Biochem. 1997; 253: 26-32; Sims, Avery & Bailey Methods in Molecular Biology 2000; vol 139: 11-26), cultures were treated with potassium borohydride to stabilise the reducible immature cross-links, and hydrolysed in 6N HCl at 100° C. for 16 hr. Total collagen content was assessed by hydroxyproline assay. Immature cross-links were assessed by LC/MS/MS and mature pyridinoline cross-links by ELISA. Cross-link data is expressed as moles of cross-link per mole collagen. […]

[6] = system: Streptozotocin and high fat diet induced liver fibrosis; assay: Streptozotocin and high fat diet induced liver fibrosis (STAM model); type: in vivo, mouse; conditions: STAM mice, daily oral gavage 10-30 mg/kg; FIG. 6
Method: Streptozotocin and High Fat Diet Induced Liver Fibrosis
High fat/carbohydrate diet induced liver fibrosis is the most common reason for liver dysfunction and ultimately liver failure. NASH is induced in male mice by a single subcutaneous injection of 200 μg streptozotocin solution 2 days after birth and feeding with high fat diet after 4 weeks of age (STAM™ model).
LOXL2 inhibitor compound 112 was administered by daily oral gavage at doses between 10-30 mg/kg 8 weeks after streptozotocin application. Mice were sacrificed after NASH had been established and whole blood samples were taken via cardiac puncture. Liver samples were collected and washed with cold saline. Liver weight was measured. The left lateral, right and caudate lobes of livers were snap frozen in liquid nitrogen and stored at −80° C. For HE staining, sections were cut from paraffin blocks of liver tissue prefixed in Bouin's solution and stained with Lillie-Mayer's Hematoxylin and eosin solution. NAFLD Activity score (NAS) was calculated according to the criteria of Kleiner (Kleiner D E. et al., Design and validation of a histological scoring system for nonalcoholic fatty liver disease. Hepatology, 2005; 41:1313). To visualize collagen deposition, Bouin's fixed liver sections were stained using picro-Sirius red solution and the area of fibrosis was quantified (See FIG. 6).

CCOC(=O)c1ccc2c(c1)c(-c1cccc(S(=O)(=O)N(C)C)c1)c(C)n2C/C(F)=C/CN [Compound 12, (Z)-ethyl 1-(4-amino-2-fluorobut-2-en-1-yl)-3-(3-(N,N-dimethylsulfamoyl)phenyl)-2-methyl-1H-indole-5-carboxylate]
Ashcroft score in the lungs [1]: significantly reduced this score | kidney function by albumin/creatinine ratio quantification [2]: significant improvement in kidney function | reduction of fibrosis by Masson's Trichrome staining ([2]; compared with vehicle-treated group): up to 50%

Cc1c(-c2cccc(S(=O)(=O)N(C)C)c2)c2ncccc2n1C/C(F)=C/CN [Compound 25, (Z)-3-(1-(4-amino-2-fluorobut-2-en-1-yl)-2-methyl-1H-pyrrolo[3,2-b]pyridin-3-yl)-N,N-dimethylbenzenesulfonamide Dihydrochloride]
reduction of fibrosis in the liver by sirius red staining with quantification [3]: up to 50% | fibrosis after ligation (Masson's trichrome stain) [4]: reduce fibrosis

N#CCCN [BAPN, β-aminopropionitrile, reference compound]
collagen cross-link formation (immature and mature cross-links) [5]: reduced cross-link formation in a concentration dependent manner

Cc1ccc2c(n1)c(-c1cccc(S(C)(=O)=O)c1)c(C)n2C/C(F)=C/CN [Compound 112, (Z)-4-(2,5-dimethyl-3-(3-(methylsulfonyl)phenyl)-1H-pyrrolo[3,2-b]pyridin-1-yl)-3-fluorobut-2-en-1-amine Dihydrochloride]
collagen cross-link formation (immature and mature cross-links) [5]: reduced cross-link formation in a concentration dependent manner | liver fibrosis (picro-Sirius red area of fibrosis) [6]: reduce liver fibrosis
